34 compounds from a melting point compilation (Tetko et al.; mined from patent text by program, amines drawn as free bases though some values may be those of a salt) can be followed below.

Each structure is given as a SMILES string.

Regarding `N=C(NC(=O)NCCCCCCNC(=O)NC(=N)Nc1ccc(Cl)cc1)Nc1ccc(Cl)cc1`, the melting point (usually the temperature of the solid-liquid transition) was in the range of 186 to 190 °C. Consider `CC(=O)OCc1cc2c(c3c1CCC3)C(=O)c1ccccc1C2=O`, for which the melting point is 160 to 161 °C.

`Cc1ccc2c(c1)[nH]c(=O)n2CCCN1CCC(C(=O)c2ccc(F)cc2)CC1` gave a melting point of 149 °C. The compound `CC1(C)CC(NS(C)(=O)=O)c2ccccc21` (centres undefined) showed a melting point of 117 to 119 °C. To `Cc1ccc(N=C=C2C=CC=CN2)c(C)c1[N+](=O)[O-]` belongs 114 to 116 °C; to `O=C1N(C(c2ccccc2)c2ccccc2)c2ccc(F)cc2C12COc1cc3c(cc12)CCO3` (centres undefined), 228 to 229 °C; to `CCOc1cc2c(C[C@H](C)N)c3n(c2cc1F)CCC3`, 107 °C. To `CC(C)OC(=O)c1cc(N=c2sc(=O)n3n2CCCC3)c(F)cc1F` belongs 86 to 88 °C; to `CC1(C)CS(=O)(=O)CC(C)(C)N1Br`, 150 °C. In the case of `Nc1ccc(OC2CCN(c3ccncc3)CC2)cc1` it was 209 to 210 °C; in that of `CSC(SC)=C(C#N)C(=O)N1CCOCC1`, 55 to 57 °C; in that of `COc1nc2cc([N+](=O)[O-])c(C)c(C(=O)NCc3ccccc3)c2nc1OC`, 171 to 173 °C. On to `CCOC(=O)c1cn(CC(F)(F)F)c2c(C)cc(F)cc2c1=O`, for which the melting point was 154 to 158 °C.

`COc1ccc2c(c1)C(CC(=O)O)=C(C)C2=Cc1ccc(S(N)(=O)=O)cc1`: the melting point was 224 to 225 °C. In the case of `COC1=CC(O)=CC(OC)C1(OC)c1cc2cccnc2[nH]1` (centres undefined) it was 174 to 176 °C; in that of `CCOC(=O)c1cn2c3c(c(F)c(F)cc3c1=O)CCC2CCl` (centres undefined), 215 to 218 °C. Compound `Cc1ccc(-c2nc(-c3ccc(C)cc3C)nc(-c3cc(C(C)(C)c4ccccc4)c(O)cc3O)n2)c(C)c1` gave a melting point of 168 to 170 °C.

As to `COc1cc(CCCCN(C)Cc2ccc(OC)c(OC)c2)ccc1NC(=O)c1cccc2c(=O)c3cccc(OC)c3[nH]c12`, the melting point lay within 114 to 115 °C. The compound `CC(C)(C)OC(=O)NCCCC(=O)NCCC(=O)OCc1ccccc1` showed a melting point of 54 to 55 °C.

`Nc1cc(CCC(=O)NC2CCc3ccccc32)ccc1O` (centres undefined) gave a melting point of 130 to 131 °C. To `CS(=O)(=O)Nc1cccc(NC(=O)C(=O)N2CCC(Cc3ccc(F)cc3)CC2)c1` belongs 102 to 106 °C; to `N#CCc1c[nH]c2cccnc12`, 201 to 202 °C. In the case of `COC(=O)CN(CC(=O)OC)S(=O)(=O)c1ccc(C)cc1` it was 99 to 100 °C; in that of `COc1ccc(C2=N[C@H](c3ccccc3)CO2)cc1C#CCN(O)C(N)=O`, 190 to 192 °C. In the case of `COc1ccc2c(c1OC)CCC(C#N)C2C#N` (centres undefined), the melting point lay in the range of 107 to 108 °C. Take `CSC1CCn2c(CCc3ccccc3)nc3cccc1c32` (centres undefined): the melting point is 62.1 to 74.1 °C. To `C[C@@H]1CN(c2ccc(-c3[nH]nc4c3C(=O)c3c(NC(=O)NN5CCOCC5)cccc3-4)cc2)C[C@H](C)N1` belongs 237 °C. The compound `Cc1nc(Cc2ccccc2)cc(C(=O)O)c1OCCCN(C)C` registered a melting point of 157 °C.

Compound `O=c1nc(N2CCN(c3ccc(Cl)cc3)CC2)sc2c([N+](=O)[O-])cc([N+](=O)[O-])cc12` registered a melting point of 178 to 180 °C. `CCOC(=O)C(=CNCc1cnsn1)C(=O)c1cc(F)c(F)c(F)c1F` gave a melting point of 154 to 156 °C. `NC(=O)c1ccc(-c2ccccc2C(=O)N2Cc3cccn3Cc3ccccc32)cc1C(F)(F)F` showed a melting point of 226 to 228 °C.

Compound `COc1ccc(C2CNCc3c(OC)cccc32)cc1OC` (centres undefined) had a melting point of 106 to 112 °C.

Compound `O=[N+]([O-])c1c(Br)nn(Cc2ccccc2)c1NCc1ccccc1` registered a melting point of 103 °C. To `O=C(O)Cc1cc(C(=O)c2ccc([N+](=O)[O-])cc2)ccc1O` belongs 213 °C.
